Common to all, as to type: cell-based
One series deals with 3T3 cells. As to the kind of experiment: Cytotoxicity against 3T3 cells. The settings on record: for Cytotoxicity 3T3 EC50: 3T3 cells.
Another series concerns HepG2 cells. The series is described as follows: Cytotoxicity against HepG2 cells. The settings on record: for Cytotoxicity HepG2 EC50: HepG2 cells.
A short description of a further series: in vitro.
The subject of series [1] is P. falciparum DD2 (chloroquine-resistant). The series is described as follows: Anti-malarial activity, P. falciparum DD2 culture, 72 hour, DNA content by flow cytometry. The settings on record: synchronized ring-stage parasites. Summed up:
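Synchronized ring-stage P. falciparum DD2 at 0.5% parasitemia, 4% final hematocrit, in RPMI 1640 with Albumax II, exposed 72 h to compound added as 2× serial dilutions spanning 2.5 μM to 20 nM. Cells were then fixed and stained with SYTOX Green (5 μM). Parasitemia was measured as DNA content by flow cytometry and fitted to give IC50.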
(Flow cytometry measures light scatter and fluorescence of single cells or particles in a stream.)

The subject of series [2] is P. falciparum 3D7 (chloroquine-sensitive). The series is described as follows: Anti-malarial activity, P. falciparum 3D7 culture, 72 hour, DNA content by flow cytometry. The settings on record: synchronized ring-stage parasites. A digest of the protocol: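 Magnet-synchronized ring-stage parasites in RPMI 1640/Albumax II were plated at 0.5% parasitemia, 4% final hematocrit, with compound added as 2× dilutions (2.5 μM to 20 nM) for 72 h. Fixed, Triton-permeabilized cells were stained with SYTOX Green (5 μM final), and DNA content was measured by flow cytometry to derive IC50.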

In brackets after ≈: the same amount, converted by molar mass.

This note sets out measurements from patent publication US20150094294A1, “COMPOUNDS AND METHODS FOR TREATING MALARIA” (Cellceutix Corporation, priority 2012, published 2015).

By EC50 is commonly meant the concentration that produces a half-maximal response. The IC50 is the point on the concentration scale where inhibition reaches its midpoint. Low values mean inhibition by little substance, high ones a need for much substance. With `N=C(N)NCCOc1ccccc1C(=O)Nc1ccc2c(c1)Cc1cc(NC(=O)c3ccccc3OCCNC(=N)N)ccc1-2` [Compound 172], the “Cytotoxicity 3T3 EC50” value with 3T3 cells is on record as “Insol”. Moreover, the “Cytotoxicity HepG2 EC50” value with HepG2 cells was “Insol”. In the series “in vitro”, this compound gave an EC50 of 22 µg/mL (≈ 36.3 µM). In addition, half-maximal inhibition in series [1] (Plasmodium falciparum) (IC50) was put at 297 nM.

For the compound `N=C(N)NCCc1cc(Br)cc(C#Cc2cc(C#Cc3cc(Br)cc(CCNC(=N)N)c3)cc(C(F)(F)F)c2)c1` [Compound 179], the “Cytotoxicity 3T3 EC50” value with 3T3 cells is listed as “insol”. Besides, the IC50 in series [2] (Plasmodium falciparum, 3D7, 72 h) was found to be 880 nM; in series [1] (Plasmodium falciparum), 795 nM. The “Cytotoxicity HepG2 EC50” value with HepG2 cells is given as “insol”. Also, in “in vitro”, the EC50 is 22 µg/mL (≈ 32.6 µM).

Take `CCN(CC)CCN(CCN)c1c(NC(=O)Nc2cc(C(F)(F)F)cc([N+](=O)[O-])c2N(CCN)CCN(CC)CC)cc(C(F)(F)F)cc1[N+](=O)[O-]` [Compound 123]: the EC50 in the series on 3T3 cells is 284000 nM; in the series on HepG2 cells it was 433000 nM. In addition, the 50% inhibitory concentration (IC50) was found to be 157 nM in series [2] and 331 nM in series [1].

As for `CN(C)CCSc1cc(SCCN(C)C)c(C(F)(F)F)cc1NC(=O)c1cc(C(=O)Nc2cc(C(F)(F)F)c(SCCN(C)C)cc2SCCN(C)C)ncn1` [Compound 102], the EC50 is < 2000 nM in the series with 3T3 cells and 49800 nM in the series with HepG2 cells. For the same compound, the IC50 in series [2] was 64 nM; in series [1], 238 nM.
